Measurements reported in article PMC13198257, “An aerosolized dual-action autotaxin inhibitor-PPARγ agonist for the treatment of pulmonary fibrosis” (Cell Reports Medicine, 2026).

Columns and labels:
LPA levels = LPA levels in BALF and plasma of BLM mice after inhaled EL244 (MS/MS); assay type: in vivo
Method: Plasma (50μL), BALF (300 μL) or homogenized lung tissue (10–50 mg) were mixed with ice-cold PBS spiked with the internal standard mixture (LPA-d9, Cayman) in a glass tube (total final volume 1mL). 2 mL of ice-cold chloroform and 1 mL of methanol was added in each sample, following by vortexing for 1 min and then centrifugation at 4°C for 5 min at 4000 g. The lower transparent organic phase (chloroform phase-contains the neutral lipids) was collected in a glass tube. The remaining aqueous phase (upper phase) was left on ice for 10 min and acidified (pH 3–4) with Formic Acid 10% in water. Then 1.5 mL chloroform was added followed by thorough mixing for 1 min and centrifugation at 4°C for 5 min at 2000 g. The lower organic phase was collected and neutralized to pH 6–7. The neutralized organic phase from the acid extraction were evaporated to dryness. After evaporation we redissolve in water/methanol (1:9) with 0.1% formic acid and run in the mass spec. All MS quantitation lipid standards were purchased from Cayman unless otherwise mentioned. All LPA species analyzed in this study were quantified using the multiple reaction monitoring (MRM) scanning method on an Waters-QQQ mass spectrometer. All data were acquired and analyzed using the Waters data analysis software. The LC separation was achieved using a Gemini 5U C18 column (Phenomenex, 5 μm, 50 × 4.6 mm) coupled to a Gemini guard column (Phenomenex, 4 × 3 mm). The LC solvents were as follows: buffer A, 85% CAN, 5% MeOH +0.1% formic acid +10% 10 mM ammonium formate buffer pH5; buffer B, 95:5 (v/v) ACN/MeOH +0.1% formic acid. A typical LC-run was 35 min, with the following solvent run sequence post injection: 0.35 mL/min 5% B for 5 min, linear gradient of B from 0 to 95% over 25 min, and re-equilibration with 0.5 mL/min of 5% B for 5 min. […] All the endogenous lipid species were quantified by measuring the area under the curve in comparison to the respective internal standard, and then normalized to the total protein content of the […] tissue. The following table presents the MRM used for LPA quantification.

liver = assay: Serum ALT/AST after 2 weeks of inhaled EL244; assay type: in vivo, mice; conditions: 2 weeks inhaled 15 mg/kg o.d.
Method: Figure S7. Inhaled prophylactic EL244 administration attenuates BLM-induced pulmonary fibrosis. Related to […]
EL244 was administered via inhalation at 15 mg/kg, once daily, from one day before to 14 days after bleomycin (BLM) administration (day 0). The compound was dissolved in 15% Kolliphor in saline. The vehicle (15% Kolliphor in saline) was administered to both the SAL and BLM control groups.
(A) Weight change in the different mouse groups during the 2 weeks of the pulmonary fibrosis experiment.
(B-D) Respiratory mechanics assessed using the FlexiVent system (n=6,8,7). Parameters include mean static lung compliance (B), mean respiratory system compliance (C) and mean total lung capacity (D).
(E) Total protein concentration in BALFs, as determined with the Bradford assay (n=6,8,7).
(F) Inflammatory cell numbers in BALFs, as counted with a hematocytometer (n=6,8,7).
(G) Soluble collagen levels in the BALFs were detected with the direct red assay (n=6,8,7). […]
(J) Quantification of fibrosis severity in H&E-stained lung sections via Ashcroft scoring (n=6,8,7). […]
Following normality testing, statistical significance was assessed with one-way ANOVA and post-hoc Tukey’s test (B, C, D, E, K/ALT, K/ALT/AST) or Welch ANOVA and post-hoc Games-Howell test (F, G, H, J) or Kruskal Wallis and post-hoc Dunn’s test (K/AST); */**/***/**** denote p<0.05/0.01/0.001/0.0001, respectively.

hERG = hERG (Homo sapiens, UniProt Q12809); assay: hERG inhibition; assay type: biochemical
NHLFs = assay: Mitotracker assay in NHLFs; assay type: cell-based, human; conditions: 25 μM, TGFβ 10 ng/mL, 24 h
Method: NHLFs were plated at a density of 1,2 × 10^4 cells/well of a 96-well plate. The next day TGFβ (10 ng/mL) and EL244 (25 μM) or vehicle (DMSO) were added to the respective wells and incubated for 24 h. Medium was replaced with DMEM without phenol red that contained LumiTracker Mito Red CMXRos at 25 nM and a 30 min incubation followed. Medium was replaced with fresh DMEM without phenol red and without Lumitracker. Fluorescence was measured (excitation at 580 nm and reading at 600 nm) with a Tecan M200 Fluorimeter and normalized with cell number per well as measured with a Tecan Cyto Spark after cell fixation with PFA at a final concentration of 2%.

3T3-L1 = assay: Differentiation of 3T3-L1 fibroblasts into adipocytes; assay type: cell-based
Method: Adipogenic differentiation was carried out following a well-established protocol.[63]^,[142] Upon reaching approximately 70% confluence, cells were induced to differentiate (day 0) by replacing the culture medium with complete DMEM containing 10μg/mL insulin. Experimental groups received either EL244 (1μM or 10μΜ) or the standard adipogenic induction cocktail consisting of 1μM dexamethasone (DEX) and 0.5mM 3-isobutyl-1-methylxanthine (IBMX), as indicated. On day 3, the medium was replaced with complete DMEM supplemented with 10μg/mL insulin, with continued exposure to EL244 (1μM or 10μM) in the respective treatment groups. On day 6, the medium was refreshed with complete DMEM containing the corresponding concentrations of EL244.
Differentiated adipocytes were fixed with 10% formalin solution for 2 h, washed with 60% isopropanol, and stained with filtered 0.3% (w/v) Oil red O solution for 20 min. Following staining, cells were washed three times with dH2O to remove excess dye and observed using a bright-field microscope. Fow quantification, cells were destained with 100% isopropanol and lipid accumulation levels were quantified by Oil red O absorption at 500nm.

hERG, sequence (Q12809 whole entry): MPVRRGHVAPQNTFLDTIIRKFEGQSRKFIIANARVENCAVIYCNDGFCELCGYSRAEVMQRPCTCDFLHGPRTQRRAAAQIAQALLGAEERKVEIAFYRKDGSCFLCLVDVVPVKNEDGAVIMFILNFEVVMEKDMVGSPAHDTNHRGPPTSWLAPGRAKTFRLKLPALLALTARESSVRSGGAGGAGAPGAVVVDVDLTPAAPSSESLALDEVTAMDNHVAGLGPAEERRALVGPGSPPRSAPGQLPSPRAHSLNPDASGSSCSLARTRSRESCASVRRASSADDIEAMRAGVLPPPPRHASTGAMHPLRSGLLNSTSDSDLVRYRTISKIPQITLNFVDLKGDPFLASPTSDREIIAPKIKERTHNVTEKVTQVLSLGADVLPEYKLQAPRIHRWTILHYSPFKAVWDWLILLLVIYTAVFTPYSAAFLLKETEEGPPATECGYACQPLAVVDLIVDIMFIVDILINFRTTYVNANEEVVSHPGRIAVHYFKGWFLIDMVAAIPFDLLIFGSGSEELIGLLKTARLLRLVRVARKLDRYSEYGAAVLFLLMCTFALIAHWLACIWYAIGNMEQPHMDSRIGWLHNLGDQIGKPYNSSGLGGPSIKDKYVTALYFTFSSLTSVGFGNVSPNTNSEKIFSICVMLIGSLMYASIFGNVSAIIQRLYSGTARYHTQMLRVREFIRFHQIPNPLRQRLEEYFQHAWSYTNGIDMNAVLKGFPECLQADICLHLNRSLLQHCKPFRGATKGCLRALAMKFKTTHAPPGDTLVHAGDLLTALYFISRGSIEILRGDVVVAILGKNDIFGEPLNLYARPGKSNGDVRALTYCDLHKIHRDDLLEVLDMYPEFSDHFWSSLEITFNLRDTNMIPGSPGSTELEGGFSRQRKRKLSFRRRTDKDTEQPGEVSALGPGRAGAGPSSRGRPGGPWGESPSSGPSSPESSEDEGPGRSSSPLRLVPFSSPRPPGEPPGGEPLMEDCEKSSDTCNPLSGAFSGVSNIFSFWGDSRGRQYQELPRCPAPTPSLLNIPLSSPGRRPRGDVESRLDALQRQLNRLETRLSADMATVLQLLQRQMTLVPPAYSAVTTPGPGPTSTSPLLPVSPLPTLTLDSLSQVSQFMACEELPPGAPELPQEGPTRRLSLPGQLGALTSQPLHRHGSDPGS

O=C1NC(=O)C(Cc2ccc(OCCC3CCN(C(=O)OCc4cc(Cl)cc(Cl)c4)CC3)cc2)S1 (stereo not drawn) [EL244, 3,5-dichlorobenzyl 4-(2-(4-((2,4-dioxothiazolidin-5-yl)methyl)phenoxy)ethyl)piperidine-1-carboxylate]
LPA species in BALF (LPA levels): All LPA species, except for 18:0, were found to be reduced in the BALF
Plasma LPA levels (LPA levels): no modulation of plasma LPA levels was detected
Total LPA content in BALFs (LPA levels): found reduced
Liver toxicity (ALT/AST levels) (liver): did not cause any appreciable toxicity in the liver
IC50 (hERG): > 25 µM
inhibition at 25 μM (hERG; human, 25 μΜ): ~12%
TGF-β-induced mitochondrial activation (NHLFs): reduced TGF-β-induced mitochondrial activation
Adipogenesis (oil red O lipid droplets) (3T3-L1; 1 or 10 μM with insulin, compared with IBMX/DEX): promoted adipogenesis dose responsively
Expression of PPARγ target genes (Adipoq, Fabp4, CD36) and PPARγ (3T3-L1; RT-qPCR): induced the expression of several PPARγ target genes
